Type in all cases: cell-based
Assay [1] addresses proteins of HEK293T cells transiently overexpressing caspase-6 (Homo sapiens, UniProt O00541). Conditions: protein PES1 (O00541); exp_ref Probe; analysis C6.
For assay [2], the target named is proteins of HEK293T cells transiently overexpressing caspase-6 (Homo sapiens, UniProt O14880). Conditions: exp_ref Probe; protein MGST3 (O14880); analysis C6.
Assay [3] deals with proteins of HEK293T cells transiently overexpressing caspase-6 (Homo sapiens, UniProt P26639). Conditions: exp_ref Probe; protein TARS (P26639); analysis C6.
proteins of HEK293T cells transiently overexpressing caspase-6 (Homo sapiens, UniProt P26639), sequence (P26639 whole entry): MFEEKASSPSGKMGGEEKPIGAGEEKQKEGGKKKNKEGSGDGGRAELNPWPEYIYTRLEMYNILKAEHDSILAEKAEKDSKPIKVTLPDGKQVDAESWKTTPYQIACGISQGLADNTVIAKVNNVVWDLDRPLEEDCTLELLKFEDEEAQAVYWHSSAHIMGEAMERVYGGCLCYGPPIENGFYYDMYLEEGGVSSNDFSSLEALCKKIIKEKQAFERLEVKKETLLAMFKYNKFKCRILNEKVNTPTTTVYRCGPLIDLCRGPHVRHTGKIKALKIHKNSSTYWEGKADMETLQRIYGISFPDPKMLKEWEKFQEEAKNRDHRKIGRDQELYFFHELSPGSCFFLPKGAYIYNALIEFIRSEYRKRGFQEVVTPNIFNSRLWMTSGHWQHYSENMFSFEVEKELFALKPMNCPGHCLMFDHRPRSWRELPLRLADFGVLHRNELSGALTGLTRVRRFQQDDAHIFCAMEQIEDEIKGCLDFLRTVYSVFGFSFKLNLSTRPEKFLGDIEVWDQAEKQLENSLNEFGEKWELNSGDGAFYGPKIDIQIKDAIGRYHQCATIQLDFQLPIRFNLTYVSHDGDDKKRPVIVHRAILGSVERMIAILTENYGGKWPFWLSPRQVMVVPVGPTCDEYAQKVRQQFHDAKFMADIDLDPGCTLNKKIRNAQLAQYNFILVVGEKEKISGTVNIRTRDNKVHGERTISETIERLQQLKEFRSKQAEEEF
For assay [4], the target named is proteins of HEK293T cells transiently overexpressing caspase-6 (Homo sapiens, UniProt P27797). The following applies: exp_ref Probe; protein CALR (P27797); analysis C6.
proteins of HEK293T cells transiently overexpressing caspase-6 (Homo sapiens, UniProt P27797), sequence (P27797 18-417): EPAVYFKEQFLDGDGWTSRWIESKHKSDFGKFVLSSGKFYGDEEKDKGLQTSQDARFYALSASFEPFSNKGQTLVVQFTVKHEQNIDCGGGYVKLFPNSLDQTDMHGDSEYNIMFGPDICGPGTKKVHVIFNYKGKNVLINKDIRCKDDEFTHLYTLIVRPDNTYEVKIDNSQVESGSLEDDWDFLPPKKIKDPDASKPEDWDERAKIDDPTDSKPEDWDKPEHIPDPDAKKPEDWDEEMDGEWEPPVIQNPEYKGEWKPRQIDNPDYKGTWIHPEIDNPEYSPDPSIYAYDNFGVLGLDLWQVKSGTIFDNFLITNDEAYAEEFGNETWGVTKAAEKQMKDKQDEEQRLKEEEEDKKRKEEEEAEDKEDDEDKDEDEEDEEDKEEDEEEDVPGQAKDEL
Assay [5] addresses proteins of HEK293T cells transiently overexpressing caspase-6 (Homo sapiens, UniProt P31689). The following applies: exp_ref Probe; protein DNAJA1 (P31689); analysis C6.
For assay [6], the target named is proteins of HEK293T cells transiently overexpressing caspase-6 (Homo sapiens, UniProt P46379). The following applies: exp_ref Probe; protein BAG6 (P46379); analysis C6.
Assay [7] has as its target proteins of HEK293T cells transiently overexpressing caspase-6 (Homo sapiens, UniProt P49327). Conditions: exp_ref Probe; protein FASN (P49327); analysis C6.
Assay [8] addresses proteins of HEK293T cells transiently overexpressing caspase-6 (Homo sapiens, UniProt P52597). Conditions: Probe; protein HNRNPF P52597.
Assay [9] has as its target proteins of HEK293T cells transiently overexpressing caspase-6 (Homo sapiens, UniProt P55884). The following applies: exp_ref Probe; protein EIF3B (P55884); analysis C6.
The target in assay [10] is proteins of HEK293T cells transiently overexpressing caspase-6 (Homo sapiens, UniProt P78371). Conditions: exp_ref Probe; protein CCT2 (P78371); analysis C6.
proteins of HEK293T cells transiently overexpressing caspase-6 (Homo sapiens, UniProt P78371), sequence (P78371 whole entry): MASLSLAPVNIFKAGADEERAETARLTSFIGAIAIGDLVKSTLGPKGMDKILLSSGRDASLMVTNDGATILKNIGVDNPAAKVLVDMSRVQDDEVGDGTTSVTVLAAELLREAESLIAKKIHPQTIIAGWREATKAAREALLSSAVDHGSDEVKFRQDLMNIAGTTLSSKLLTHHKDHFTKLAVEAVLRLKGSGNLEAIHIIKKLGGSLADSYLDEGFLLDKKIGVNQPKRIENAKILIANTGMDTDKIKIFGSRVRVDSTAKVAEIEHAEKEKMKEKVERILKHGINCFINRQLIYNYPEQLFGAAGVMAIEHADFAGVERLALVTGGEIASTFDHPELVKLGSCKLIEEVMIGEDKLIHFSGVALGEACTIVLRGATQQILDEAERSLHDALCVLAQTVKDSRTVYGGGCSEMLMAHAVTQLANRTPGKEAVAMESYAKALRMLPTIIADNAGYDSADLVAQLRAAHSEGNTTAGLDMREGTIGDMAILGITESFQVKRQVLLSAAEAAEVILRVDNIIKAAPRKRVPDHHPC
The target in assay [11] is T1, proteins of HEK293T cells transiently overexpressing caspase-6 (Homo sapiens, UniProt Q15942).
T1 sequence (Q15942 1-572): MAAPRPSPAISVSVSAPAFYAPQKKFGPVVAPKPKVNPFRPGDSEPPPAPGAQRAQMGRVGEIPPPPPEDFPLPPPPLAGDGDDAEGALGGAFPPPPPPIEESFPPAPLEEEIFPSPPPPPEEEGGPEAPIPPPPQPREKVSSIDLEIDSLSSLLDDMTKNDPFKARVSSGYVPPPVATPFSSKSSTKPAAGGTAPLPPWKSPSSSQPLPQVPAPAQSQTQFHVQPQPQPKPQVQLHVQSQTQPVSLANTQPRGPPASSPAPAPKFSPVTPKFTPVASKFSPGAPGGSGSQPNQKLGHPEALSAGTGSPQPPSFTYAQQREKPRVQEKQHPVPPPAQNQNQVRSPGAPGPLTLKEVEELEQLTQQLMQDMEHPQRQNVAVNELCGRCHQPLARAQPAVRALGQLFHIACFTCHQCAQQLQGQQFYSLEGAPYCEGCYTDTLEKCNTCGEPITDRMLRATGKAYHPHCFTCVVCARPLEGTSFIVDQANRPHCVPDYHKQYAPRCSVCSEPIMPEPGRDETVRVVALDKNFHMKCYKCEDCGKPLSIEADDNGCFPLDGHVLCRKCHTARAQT

For assay [12], the target named is proteins of HEK293T cells transiently overexpressing caspase-6 (Homo sapiens, UniProt Q6P2Q9). Conditions: exp_ref Probe; protein PRPF8 (Q6P2Q9); analysis C6.
In assay [13] the target is T2, proteins of HEK293T cells transiently overexpressing caspase-6 (Homo sapiens, UniProt Q8NC51).
T2 sequence (Q8NC51 1-408): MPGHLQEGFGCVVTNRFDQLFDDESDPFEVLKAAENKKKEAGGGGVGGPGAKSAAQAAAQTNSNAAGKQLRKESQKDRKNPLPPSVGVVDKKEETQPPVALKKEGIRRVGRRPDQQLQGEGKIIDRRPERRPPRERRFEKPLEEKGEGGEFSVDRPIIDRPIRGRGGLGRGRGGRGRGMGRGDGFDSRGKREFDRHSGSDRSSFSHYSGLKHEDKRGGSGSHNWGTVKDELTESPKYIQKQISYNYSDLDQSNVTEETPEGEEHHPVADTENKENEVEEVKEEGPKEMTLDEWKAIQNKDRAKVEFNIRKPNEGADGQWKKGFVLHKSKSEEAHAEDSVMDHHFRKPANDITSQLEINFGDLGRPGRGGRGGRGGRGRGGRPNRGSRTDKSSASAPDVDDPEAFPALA

For assay [14], the target named is proteins of HEK293T cells transiently overexpressing caspase-6 (Homo sapiens, UniProt Q96F25). The following applies: Probe; protein ALG14 Q96F25.
proteins of HEK293T cells transiently overexpressing caspase-6 (Homo sapiens, UniProt Q96F25), sequence (Q96F25 whole entry): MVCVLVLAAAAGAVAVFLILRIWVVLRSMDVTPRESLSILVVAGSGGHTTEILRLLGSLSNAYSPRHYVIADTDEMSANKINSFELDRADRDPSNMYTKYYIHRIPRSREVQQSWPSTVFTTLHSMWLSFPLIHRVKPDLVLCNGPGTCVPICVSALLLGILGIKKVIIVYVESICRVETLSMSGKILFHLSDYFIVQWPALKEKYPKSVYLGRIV
In assay [15] the target is proteins of HEK293T cells transiently overexpressing caspase-6 (Homo sapiens, UniProt Q96K37). Conditions: protein SLC35E1 (Q96K37); exp_ref Probe; analysis C6.
proteins of HEK293T cells transiently overexpressing caspase-6 (Homo sapiens, UniProt Q96K37), sequence (Q96K37 whole entry): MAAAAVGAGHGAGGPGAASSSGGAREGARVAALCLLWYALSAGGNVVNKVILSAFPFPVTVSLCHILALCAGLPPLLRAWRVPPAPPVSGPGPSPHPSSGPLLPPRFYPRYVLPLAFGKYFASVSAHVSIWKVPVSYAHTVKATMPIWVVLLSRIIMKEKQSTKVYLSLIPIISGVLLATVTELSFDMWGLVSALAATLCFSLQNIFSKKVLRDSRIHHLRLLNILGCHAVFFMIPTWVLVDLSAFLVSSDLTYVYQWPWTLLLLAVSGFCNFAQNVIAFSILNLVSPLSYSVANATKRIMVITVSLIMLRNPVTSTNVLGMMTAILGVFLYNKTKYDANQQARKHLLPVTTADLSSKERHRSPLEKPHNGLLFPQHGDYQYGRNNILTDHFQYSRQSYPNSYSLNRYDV
The target of assay [16] is proteins of HEK293T cells transiently overexpressing caspase-6 (Homo sapiens, UniProt Q99714). The following applies: exp_ref Probe; protein HSD17B10 (Q99714); analysis C6.
proteins of HEK293T cells transiently overexpressing caspase-6 (Homo sapiens, UniProt Q99714), sequence (Q99714 whole entry): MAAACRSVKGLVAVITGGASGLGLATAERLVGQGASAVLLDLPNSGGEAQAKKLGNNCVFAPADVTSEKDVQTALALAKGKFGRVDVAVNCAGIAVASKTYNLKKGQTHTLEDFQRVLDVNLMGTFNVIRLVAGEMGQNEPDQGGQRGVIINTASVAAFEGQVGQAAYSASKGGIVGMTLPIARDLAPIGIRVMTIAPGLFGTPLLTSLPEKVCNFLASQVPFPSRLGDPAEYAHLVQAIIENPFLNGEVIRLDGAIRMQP
Assay [17] concerns the target proteins of HEK293T cells transiently overexpressing caspase-6 (Homo sapiens, UniProt Q9Y224). Conditions: Probe; protein C14orf166 Q9Y224.

Each structure is given as a SMILES string.

proteins of HEK293T cells transiently overexpressing caspase-6 (Homo sapiens, UniProt P31689), sequence (P31689 whole entry): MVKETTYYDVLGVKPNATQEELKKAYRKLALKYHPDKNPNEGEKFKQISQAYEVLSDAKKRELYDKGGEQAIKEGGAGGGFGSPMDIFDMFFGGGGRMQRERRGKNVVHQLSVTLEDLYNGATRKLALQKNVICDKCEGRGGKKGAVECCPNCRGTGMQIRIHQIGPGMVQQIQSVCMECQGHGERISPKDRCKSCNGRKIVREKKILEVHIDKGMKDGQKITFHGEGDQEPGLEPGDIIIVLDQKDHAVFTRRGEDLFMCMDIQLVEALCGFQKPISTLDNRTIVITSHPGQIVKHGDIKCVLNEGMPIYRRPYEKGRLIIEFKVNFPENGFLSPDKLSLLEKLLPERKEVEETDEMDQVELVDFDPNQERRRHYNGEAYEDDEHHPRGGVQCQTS
proteins of HEK293T cells transiently overexpressing caspase-6 (Homo sapiens, UniProt P55884), sequence (P55884 whole entry): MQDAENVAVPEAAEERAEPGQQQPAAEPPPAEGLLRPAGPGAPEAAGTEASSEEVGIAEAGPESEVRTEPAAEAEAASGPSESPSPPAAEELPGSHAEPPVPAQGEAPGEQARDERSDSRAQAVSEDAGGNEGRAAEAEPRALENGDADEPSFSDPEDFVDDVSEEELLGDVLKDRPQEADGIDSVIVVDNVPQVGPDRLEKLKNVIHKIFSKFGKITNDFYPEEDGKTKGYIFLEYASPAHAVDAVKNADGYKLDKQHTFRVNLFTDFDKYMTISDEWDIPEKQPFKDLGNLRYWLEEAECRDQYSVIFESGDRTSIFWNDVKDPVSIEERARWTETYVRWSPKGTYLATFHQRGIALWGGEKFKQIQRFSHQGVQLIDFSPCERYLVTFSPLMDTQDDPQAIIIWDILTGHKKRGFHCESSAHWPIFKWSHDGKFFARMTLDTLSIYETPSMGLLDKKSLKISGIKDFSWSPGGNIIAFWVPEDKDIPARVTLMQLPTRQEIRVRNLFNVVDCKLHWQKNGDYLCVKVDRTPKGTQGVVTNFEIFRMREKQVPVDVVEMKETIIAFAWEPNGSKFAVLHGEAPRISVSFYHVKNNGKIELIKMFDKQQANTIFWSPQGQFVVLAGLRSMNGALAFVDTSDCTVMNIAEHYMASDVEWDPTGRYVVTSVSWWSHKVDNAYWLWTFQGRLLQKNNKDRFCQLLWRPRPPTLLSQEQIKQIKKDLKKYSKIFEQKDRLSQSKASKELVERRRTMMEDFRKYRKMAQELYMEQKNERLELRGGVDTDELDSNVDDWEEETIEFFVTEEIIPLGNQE
proteins of HEK293T cells transiently overexpressing caspase-6 (Homo sapiens, UniProt P52597), sequence (P52597 whole entry): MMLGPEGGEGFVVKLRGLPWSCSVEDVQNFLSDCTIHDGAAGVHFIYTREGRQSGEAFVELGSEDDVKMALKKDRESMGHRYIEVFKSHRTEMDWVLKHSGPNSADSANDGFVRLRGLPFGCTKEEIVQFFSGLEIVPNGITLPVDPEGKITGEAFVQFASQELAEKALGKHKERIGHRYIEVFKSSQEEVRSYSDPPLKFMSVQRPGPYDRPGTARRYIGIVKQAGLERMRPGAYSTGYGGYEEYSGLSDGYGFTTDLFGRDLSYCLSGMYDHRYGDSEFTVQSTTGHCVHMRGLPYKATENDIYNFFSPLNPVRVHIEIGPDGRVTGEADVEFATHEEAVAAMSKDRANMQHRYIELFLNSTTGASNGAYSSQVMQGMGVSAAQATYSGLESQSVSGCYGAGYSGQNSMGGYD
proteins of HEK293T cells transiently overexpressing caspase-6 (Homo sapiens, UniProt O14880), sequence (O14880 whole entry): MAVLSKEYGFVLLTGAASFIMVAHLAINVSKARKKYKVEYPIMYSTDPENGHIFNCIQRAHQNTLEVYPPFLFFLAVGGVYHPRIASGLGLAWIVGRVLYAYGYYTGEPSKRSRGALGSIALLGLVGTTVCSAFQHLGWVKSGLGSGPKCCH
proteins of HEK293T cells transiently overexpressing caspase-6 (Homo sapiens, UniProt Q9Y224), sequence (Q9Y224 whole entry): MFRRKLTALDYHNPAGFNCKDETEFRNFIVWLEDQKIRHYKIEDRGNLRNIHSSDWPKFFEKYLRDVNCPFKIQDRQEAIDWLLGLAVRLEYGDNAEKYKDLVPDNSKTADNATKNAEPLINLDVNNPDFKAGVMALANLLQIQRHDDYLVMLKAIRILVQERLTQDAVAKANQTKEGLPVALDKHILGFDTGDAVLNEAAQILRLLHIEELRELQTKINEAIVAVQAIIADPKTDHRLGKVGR

For the compound `C#CCOc1ccc([C@@H]2C[C@@H](C(=O)Nc3ccc(OC(F)(F)F)cc3)CN(S(=O)(=O)C=C)C2)cc1` (relative stereo) [13-t], the enrich.exp.med in [1] is given as 1.47; in assay [2] it was 1.143; in assay [3], 0.1344; in assay [4], 0.5687; in assay [5], 0.404; in assay [6], 0.9575. In addition, the enrich.exp.med in assay [7] is on record as -0.2577; in [8], -0.4498; in assay [9] it was 0.2575; in assay [10], 0.6812; in assay [11] (Probe, protein ZYX Q15942), -1.696; in [12] it was 0.2125. Also, the enrich.exp.med in assay [13] (Probe, protein SERBP1 Q8NC51) is -1.6881; in assay [14] it was -1.074; in assay [15] it was 1.71; in [16], 0.1684; in [17], -1.579. Further, the enrich.exp.med.lin was found to be 0.3087 in [11] (protein ZYX (Q15942)) and 0.3103 in [13] (protein SERBP1 (Q8NC51)). In addition, the enrich.exp.med.log2 in assay [11] (protein ZYX (Q15942)) is on record as -1.696; in assay [13] (protein SERBP1 (Q8NC51)) it was -1.6881.

The values above are taken from publication PMC10176470, “Engaging a Non-catalytic Cysteine Residue Drives Potent and Selective Inhibition of Caspase-6” (Journal of the American Chemical Society, 2023).
